IC50 data for four compounds are collected here from BindingDB's records for doi:10.1021/jm5015814 (Slovak Academy of Sciences, 2015).

The term pIC50 denotes the IC50 on a negative log10 scale, so that one unit is a factor of ten. Higher therefore signals a small IC50.

The structures appear in SMILES notation. pIC50: −log10 of the molar value.

For the assay, the target named is Aldehyde reductase AKR1A1 (Rattus norvegicus). As to the kind of experiment: Inhibition of Wistar rat kidney aldehyde reductase using D-glucuronate as substrate by spectrophotometry.
On to `CCCNC(=O)CSc1nnc2c3cc(C)ccc3n(CC(=O)O)c2n1`, for which the negative logarithm of the IC50 (pIC50) is 4.71. In the case of `O=C(O)Cn1ccc2ccccc21` [CHEBI:72814], the pIC50 was 4.10. On to `CC(C)(C)C(=O)c1cn(CC(=O)O)c2ccccc12`, for which the pIC50 is 4.16. The pIC50 values of the last two compounds are within 0.2 log units of each other. Under `O=C(O)Cn1c2ccccc2c2nc3ccccc3nc21` stands 4.61.
